# Data from paper PMC2246472, “Bombesin and bombesin antagonists: studies in Swiss 3T3 cells and human small cell lung cancer” (British Journal of Cancer, 1988).
# pEC50: −log10 of the molar value. Read-outs that look alike come from different tables or passages of the source.
# Experiments:
# bombesin/GRP receptor = target: T1, bombesin/GRP receptor (Mus musculus, UniProt P21729); settings: Swiss 3T3 cells; ref Zachary & Rozengurt, 1985a; cited from earlier work
# T1 construct: endogenous in cells; host or cells: Swiss 3T3 murine fibroblasts (intact, quiescent/confluent)
# T1 sequence (P21729 whole entry): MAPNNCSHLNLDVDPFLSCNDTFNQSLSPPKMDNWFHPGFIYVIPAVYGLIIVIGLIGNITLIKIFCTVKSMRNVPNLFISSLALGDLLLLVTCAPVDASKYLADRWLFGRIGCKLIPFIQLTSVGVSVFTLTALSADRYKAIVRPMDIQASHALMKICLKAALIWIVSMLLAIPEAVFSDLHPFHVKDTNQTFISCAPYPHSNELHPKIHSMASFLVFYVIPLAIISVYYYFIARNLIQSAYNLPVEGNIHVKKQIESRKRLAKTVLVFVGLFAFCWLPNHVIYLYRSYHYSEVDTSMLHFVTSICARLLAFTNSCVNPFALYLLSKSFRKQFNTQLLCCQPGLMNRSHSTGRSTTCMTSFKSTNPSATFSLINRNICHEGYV
# Source text: Br. J. Cancer (1988), 57, 579-586 ? The Macmillan Press Ltd., 1988 Bombesin and bombesin antagonists: Studies in Swiss 3T3 cells and human small cell lung cancer* P.J. Woll & E. Rozengurt Imperial Cancer Research Fund, PO Box 123, Lincoln's Inn Fields, London WC2A 3PX, UK.
# H69 SCLC cell line = experiment: Growth of H69 SCLC cell line in serum-free HITES medium (Coulter counter); assay type: cell-based, human; settings: peptide A at 150 pM (so in the source), HITES medium + 0.25% bovine serum albumin, inoculum 5 x 10^4 cells, mean of 3; restored by washing; Figure 3 left
# Ca2+ mobilization = settings: Swiss 3T3 cells; ref Mendoza et al., 1986; cited from earlier work
# Source text: (§1) Br. J. Cancer (1988), 57, 579-586 ? The Macmillan Press Ltd., 1988 Bombesin and bombesin antagonists: Studies in Swiss 3T3 cells and human small cell lung cancer* P.J. Woll & E. Rozengurt Imperial Cancer Research Fund, PO Box 123, Lincoln's Inn Fields, London WC2A 3PX, UK. Summary Bombesins are potent growth factors for murine Swiss 3T3 cells. Using these cells in chemically defined conditions we have been able to characterise the bombesin receptor and the early signals preceding DNA synthesis. We describe two substance P analogues [DArg1, DPro2, DTrp7 9, Leu1 ] substance P and [DArg1, DPhe5, ...
# EGF receptor = settings: Swiss 3T3 cells; ref Zachary et al., 1986; cited from earlier work
# Source text: as §1
# [1] = system: GRP-stimulated mitogenesis in Swiss 3T3 cells; settings: ref Zachary & Rozengurt, 1985a; cited from earlier work
# Source text: as §1
# [2] = target: T2, Mr 75,000-85,000 protein component of the bombesin/GRP receptor (Mus musculus, UniProt P21729); settings: Swiss 3T3 cells; ref Zachary & Rozengurt, 1987a; cited from earlier work
# T2 construct: endogenous in cells; host or cells: Swiss 3T3 murine fibroblasts (intact, quiescent/confluent)
# T2 sequence (P21729 whole entry): as above
# Source text: as §1
# Na+/K+ pump = settings: Swiss 3T3 cells; ref Mendoza et al., 1986; cited from earlier work
# Source text: as §1
# Swiss 3T3 cells [3] = settings: ref Zachary & Rozengurt, 1985a; cited from earlier work
# Source text: as §1
# [4] = system: c-fos and c-myc expression; settings: Swiss 3T3 cells; ref Rozengurt & Sinnett-Smith, 1987; cited from earlier work
# Source text: as §1
# [5] = system: protein kinase C (80K phosphorylation); settings: Swiss 3T3 cells; ref Zachary et al., 1986; cited from earlier work
# Source text: as §1
# [6] = system: vasopressin-stimulated DNA synthesis in Swiss 3T3 cells; settings: ref Zachary & Rozengurt, 1986, Corps et al., 1985; cited from earlier work
# Source text: as §1
# pancreatic acinar cells = settings: ref Jensen et al., 1984; cited from earlier work
# Swiss 3T3 cells [7] = system: Swiss 3T3 cells; parameters: method as in 2 sources, one per row (each row's own in cited_ref): ref Rozengurt & Sinnett-Smith, 1983 ||| ref Zachary & Rozengurt, 1985a; settings: serum-free medium, cited from earlier work
compound,measurement,setting,value
"CCCC(=O)O[C@@H]1[C@@H](C)[C@@]2(O)[C@@H](C=C(CO)C[C@]3(O)C(=O)C(C)=C[C@@H]23)[C@@H]2C(C)(C)[C@]12OC(=O)CCC [PBt2, phorbol 12,13, dibutyrate, reference compound]",inhibition of [125I]GRP binding by other mitogens and neuropeptides,bombesin/GRP receptor,not inhibited
"Arg Pro Lys Pro Gln Gln Phe Phe Gly Leu Met NH2 [substance P, tachykinin with minimal structural homology with bombesin, reference compound]",inhibition of [125I]GRP binding by other mitogens and neuropeptides,bombesin/GRP receptor,not inhibited
"DArg Dpro Lys Pro Gln Gln DTrp Phe DTrp Leu Leu NH2 [peptide A, [DArg1, DPro2, DTrp7,9, Leu11] substance P]",effect on growth of H69 cells,H69 SCLC cell line,suppressed
same,effect on [125I]GRP binding (Table III),bombesin/GRP receptor,reversibly blocks
same,effect on Ca2+ mobilization (Table III),Ca2+ mobilization,reversibly blocks
same,effect on EGF transmodulation (Table III),EGF receptor,reversibly blocks
same,effect on stimulation of DNA synthesis by bombesin-like peptides (Table III),[1],reversibly blocks
same,"effect on cross-linking of [125I]GRP to the Mr 75,000-85,000 glycoprotein (Table III)",[2],reversibly blocks
same,effect on activation of Na+/K+ pump (Table III),Na+/K+ pump,reversibly blocks
same,"effect on DNA synthesis stimulated by PDGF, EGF, phorbol esters and c-AMP-increasing agents (Table III)",Swiss 3T3 cells [3],is not affected
same,effect on increase in c-fos and c-myc expression (Table III),[4],reversibly blocks
same,effect on 80K phosphorylation (Table III),[5],reversibly blocks
same,effect on stimulation of DNA synthesis by vasopressin (Table III),[6],reversibly blocks
same,effect on secretory effects of bombesin in pancreatic acinar cells,pancreatic acinar cells,block the secretory effects of bombesin
EGF: epidermal growth factor,inhibition of [125I]GRP binding by other mitogens and neuropeptides,bombesin/GRP receptor,not inhibited
PDGF,inhibition of [125I]GRP binding by other mitogens and neuropeptides,bombesin/GRP receptor,not inhibited
insulin,inhibition of [125I]GRP binding by other mitogens and neuropeptides,bombesin/GRP receptor,not inhibited
"pGlu Gin Arg Leu Gly Asn Gin Trp Ala Val Gly His Leu Met NH2 [bombesin, tetradecapeptide first isolated from amphibian skin]",pEC50,"Swiss 3T3 cells [7]; absence of other growth-promoting agents, ref Rozengurt & Sinnett-Smith, 1983, read-out: bombesin concentration giving half-maximal effect on DNA synthesis",9.00
same,pEC50,"Swiss 3T3 cells [7]; in the presence of insulin, ref Zachary & Rozengurt, 1985a, read-out: bombesin concentration required to produce a half-maximal response (DNA synthesis) with insulin",9.52
"vasoactive intestinal peptide [VIP, reference compound]",inhibition of [125I]GRP binding by other mitogens and neuropeptides,bombesin/GRP receptor,not inhibited
vasopressin [reference compound],inhibition of [125I]GRP binding by other mitogens and neuropeptides,bombesin/GRP receptor,not inhibited
